± gives the expanded uncertainty stated by the source.
Test: xn = mol fraction of the nth substance listed
Conditions: 101 kPa, Liquid; for speed of sound: Pulse-echo method; for mass density: Vibrating tube method

COCCO [2-methoxyethan-1-ol] + CCCCCCCCO
Conditions	mass density, 293.15 K [kg/m3]	mass density, 298.15 K [kg/m3]	mass density, 303.15 K [kg/m3]	mass density, 308.15 K [kg/m3]	speed of sound, 293.15 K [m/s]	speed of sound, 298.15 K [m/s]	speed of sound, 303.15 K [m/s]	speed of sound, 308.15 K [m/s]
x1 = 0.0535	828.636 ± 0.23	825.138 ± 0.23	821.625 ± 0.23	818.089 ± 0.23	1362 ± 1.2	1345 ± 1.2	1328.2 ± 1.2	1311.5 ± 1.2
x1 = 0.1073	832.242 ± 0.23	828.704 ± 0.23	825.153 ± 0.23	821.583 ± 0.23	1359.3 ± 1.2	1342.3 ± 1.2	1325.5 ± 1.2	1308.9 ± 1.2
x1 = 0.1407	834.668 ± 0.23	831.104 ± 0.23	827.528 ± 0.23	823.931 ± 0.23	1357.9 ± 1.2	1340.7 ± 1.2	1323.9 ± 1.2	1307.2 ± 1.2
x1 = 0.2002	839.135 ± 0.23	835.528 ± 0.23	831.905 ± 0.23	828.261 ± 0.23	1354.9 ± 1.2	1337.9 ± 1.2	1321.1 ± 1.2	1304.5 ± 1.2
x1 = 0.2659	844.444 ± 0.23	840.786 ± 0.23	837.111 ± 0.23	833.414 ± 0.23	1351.9 ± 1.2	1334.9 ± 1.2	1318.1 ± 1.2	1301.4 ± 1.2
x1 = 0.2973	847.294 ± 0.23	843.606 ± 0.23	839.904 ± 0.23	836.178 ± 0.23	1350.5 ± 1.2	1333.6 ± 1.2	1316.8 ± 1.2	1300.1 ± 1.2
x1 = 0.3559	852.613 ± 0.23	848.877 ± 0.23	845.122 ± 0.23	841.346 ± 0.23	1348 ± 1.2	1331.1 ± 1.2	1314.2 ± 1.2	1297.5 ± 1.2
x1 = 0.5233	870.97 ± 0.23	870.97 ± 0.23	863.148 ± 0.23	859.203 ± 0.23	1342.3 ± 1.2	1325.3 ± 1.2	1308.5 ± 1.2	1296.6 ± 1.2
x1 = 0.6059	881.954 ± 0.23	867.068 ± 0.23	873.942 ± 0.23	869.902 ± 0.23	1340.4 ± 1.2	1323.4 ± 1.2	1306.5 ± 1.2	1289.7 ± 1.2
x1 = 0.7126	898.662 ± 0.23	877.961 ± 0.23	890.382 ± 0.23	886.205 ± 0.23	1339.7 ± 1.2	1322.6 ± 1.2	1305.7 ± 1.2	1288.8 ± 1.2
x1 = 0.7903	912.569 ± 0.23	908.335 ± 0.24	904.076 ± 0.23	899.757 ± 0.23	1340.9 ± 1.2	1323.9 ± 1.2	1306.9 ± 1.2	1290 ± 1.2
x1 = 0.9202	942.675 ± 0.23	938.234 ± 0.23	933.772 ± 0.23	929.291 ± 0.23	1349.3 ± 1.2	1332.2 ± 1.2	1315 ± 1.2	1298 ± 1.2

COCCO [2-methoxyethan-1-ol] + CCCCCCO
Conditions	mass density, 293.15 K [kg/m3]	mass density, 298.15 K [kg/m3]	mass density, 303.15 K [kg/m3]	mass density, 308.15 K [kg/m3]	speed of sound, 293.15 K [m/s]	speed of sound, 298.15 K [m/s]	speed of sound, 303.15 K [m/s]	speed of sound, 308.15 K [m/s]
x1 = 0.0538	822.792 ± 0.23	819.173 ± 0.23	815.536 ± 0.23	811.869 ± 0.24	1319.2 ± 1.2	1302.3 ± 1.2	1285.5 ± 1.2	1268.9 ± 1.2
x1 = 0.1042	828.127 ± 0.23	824.464 ± 0.23	820.781 ± 0.23	817.068 ± 0.23	1318.3 ± 1.2	1301.4 ± 1.2	1284.6 ± 1.2	1267.9 ± 1.2
x1 = 0.1509	831.771 ± 0.23	828.075 ± 0.23	824.358 ± 0.23	820.611 ± 0.23	1317.7 ± 1.2	1300.8 ± 1.2	1284 ± 1.2	1267.4 ± 1.2
x1 = 0.2055	837.788 ± 0.23	834.043 ± 0.23	830.27 ± 0.23	826.473 ± 0.23	1317.1 ± 1.2	1300.2 ± 1.2	1283.4 ± 1.2	1266.8 ± 1.2
x1 = 0.2405	841.087 ± 0.23	837.314 ± 0.23	833.515 ± 0.23	829.687 ± 0.23	1316.7 ± 1.2	1299.8 ± 1.2	1283.1 ± 1.2	1266.4 ± 1.2
x1 = 0.2987	847.639 ± 0.23	843.81 ± 0.23	839.961 ± 0.23	836.084 ± 0.23	1316.3 ± 1.2	1299.5 ± 1.2	1282.7 ± 1.2	–
x1 = 0.4088	860.712 ± 0.23	856.785 ± 0.23	852.828 ± 0.23	848.853 ± 0.23	1317.3 ± 1.2	1300.5 ± 1.2	1283.6 ± 1.2	1266.9 ± 1.2
x1 = 0.5134	874.132 ± 0.23	870.1 ± 0.23	866.048 ± 0.23	861.965 ± 0.23	1318.6 ± 1.2	1301.7 ± 1.2	1284.8 ± 1.2	1268.1 ± 1.2
x1 = 0.5991	886.614 ± 0.23	882.495 ± 0.23	878.355 ± 0.23	874.185 ± 0.23	1321.2 ± 1.2	1304.2 ± 1.2	1287.3 ± 1.2	1270.6 ± 1.2
x1 = 0.6915	901.59 ± 0.23	897.37 ± 0.23	893.13 ± 0.23	888.857 ± 0.23	1325.9 ± 1.2	1308.8 ± 1.2	1291.9 ± 1.2	1275 ± 1.2
x1 = 0.805	922.045 ± 0.23	917.699 ± 0.23	913.334 ± 0.23	908.936 ± 0.23	1334.2 ± 1.2	1317.1 ± 1.2	1300.1 ± 1.2	1283.2 ± 1.2
x1 = 0.9039	942.54 ± 0.23	938.079 ± 0.23	933.591 ± 0.23	929.076 ± 0.23	1345 ± 1.2	1327.9 ± 1.2	1310.8 ± 1.2	1293.7 ± 1.2

COCCO [2-methoxyethan-1-ol] + CCCCCCCCCCO
Conditions	mass density, 293.15 K [kg/m3]	mass density, 298.15 K [kg/m3]	mass density, 303.15 K [kg/m3]	mass density, 308.15 K [kg/m3]	speed of sound, 293.15 K [m/s]	speed of sound, 298.15 K [m/s]	speed of sound, 303.15 K [m/s]	speed of sound, 308.15 K [m/s]
x1 = 0.0606	832.95 ± 0.23	829.505 ± 0.23	826.05 ± 0.23	822.58 ± 0.23	1393.1 ± 1.2	1375.9 ± 1.2	1359 ± 1.2	1342.2 ± 1.2
x1 = 0.1173	835.952 ± 0.23	832.457 ± 0.23	828.982 ± 0.23	825.482 ± 0.23	1389.5 ± 1.2	1372.4 ± 1.2	1355.4 ± 1.2	1338.6 ± 1.2
x1 = 0.1631	838.564 ± 0.23	835.06 ± 0.23	831.539 ± 0.23	828.008 ± 0.23	1386.6 ± 1.2	1369.5 ± 1.2	1352.6 ± 1.2	1335.8 ± 1.2
x1 = 0.1934	840.414 ± 0.23	836.878 ± 0.23	833.342 ± 0.23	829.786 ± 0.23	1384.7 ± 1.2	1367.5 ± 1.2	1350.6 ± 1.2	1333.8 ± 1.2
x1 = 0.251	844.262 ± 0.23	840.695 ± 0.23	837.111 ± 0.23	833.512 ± 0.23	1380.8 ± 1.2	1363.7 ± 1.2	1346.8 ± 1.2	1330 ± 1.2
x1 = 0.3025	847.887 ± 0.23	844.28 ± 0.23	840.662 ± 0.23	837.024 ± 0.23	1377.5 ± 1.2	1360.4 ± 1.2	1343.5 ± 1.2	1326.7 ± 1.2
x1 = 0.413	856.97 ± 0.23	853.268 ± 0.23	849.553 ± 0.23	845.819 ± 0.23	1370.2 ± 1.2	1353.1 ± 1.2	1336.2 ± 1.2	1319.4 ± 1.2
x1 = 0.517	867.321 ± 0.23	863.518 ± 0.23	859.697 ± 0.23	855.861 ± 0.23	1363.6 ± 1.2	1346.6 ± 1.2	1329.6 ± 1.2	1312.8 ± 1.2
x1 = 0.6285	880.912 ± 0.23	876.98 ± 0.23	873.028 ± 0.23	869.056 ± 0.23	1356.6 ± 1.2	1339.6 ± 1.2	1322.6 ± 1.2	1305.7 ± 1.2
x1 = 0.7087	892.252 ± 0.23	888.913 ± 0.23	884.854 ± 0.23	880.773 ± 0.23	1352.5 ± 1.2	1335.3 ± 1.2	1318.4 ± 1.2	1301.5 ± 1.2
x1 = 0.7965	909.015 ± 0.23	904.836 ± 0.23	900.644 ± 0.23	896.427 ± 0.23	1349.5 ± 1.2	1332.3 ± 1.2	1315.3 ± 1.2	1298.3 ± 1.2
x1 = 0.9382	944.534 ± 0.23	940.097 ± 0.23	935.63 ± 0.23	931.137 ± 0.23	1352.5 ± 1.2	1335.3 ± 1.2	1318.2 ± 1.2	1301.1 ± 1.2

From the NIST ThermoML archive (doi:10.1021/je9005344)
